# Data taken from patent US5952530A, “Separation processes” (Union Carbide Chemicals & Plastics Technology Corporation, priority 1998, dated 1999).
# Like-named read-outs stand apart in the source and are kept apart here.
# What was measured:
# [1] = Partition of polar organic molecules between hexane and acetonitrile; type: physicochemical; details: hexane/acetonitrile equal volumes; GC; polar molecule wt%: propionaldehyde 7.5, butyraldehyde 5.2, valeraldehyde 5.5, 3-pentenenitrile 4.7
# Method: Solutions were prepared containing equal volumes of hexane and acetonitrile. To each solution was added a polar organic molecule identified in Table L below. The mixture was vigorously shaken, then allowed to settle and phase separate. The two phases were then analyzed for content of polar molecule by GC. In Table L, the percent by weight of polar molecule added to the hexane/acetonitrile solvent mixture together with Kpartition is given for various polar molecules.
# [2] = for Kpartition: hexane:acetonitrile (1:1) solvent system, summary table; for partition coefficient Kp: hexane/acetonitrile solvent system, examples, Tables A and B
# [3] = Extraction of Texanol from rhodium/Ligand E catalyst: Kpartition and selectivity; type: physicochemical
# Method: . To this mixture was added an equal volume of acetonitrile. The mixture was shaken for 30 minutes, then allowed to settle and phase separate for several hours. The two layers were then separated, and analyzed for content. The partition coefficient Kp of the catalyst is summarized in Table J below, together with the volume ratio of the two phases defined as Vratio=volume of the catalyst containing phase after extraction/volume of the extracting solution phase after extraction, and the selectivity of the extraction defined as Selectivity=Kpartition of catalyst/Kpartition organic material being separated from catalyst.
# . […] The mixture was shaken for 30 minutes, then allowed to settle and phase separate over several hours. The two phases were then separated and analyzed for content. In Table K below, partition coefficient Kp of the catalyst and Texanol as well as the volume ratio of the two phases defined as Vratio=volume of the catalyst containing phase after extraction/volume of the extracting solution phase after extraction is summarized.
# [4] = DMSO, Examples 18 (B 0.8 wt%, 223 ppm Rh), 19 (C 0.8 wt%, 222 ppm Rh), 21 (E 0.6 wt%, 136 ppm Rh)
# [5] = polar solvent W: acetonitrile with 1 wt% water, Examples 24 (B 0.8 wt%, 223 ppm Rh), 25 (E 0.6 wt%, 120 ppm Rh)
structure (smiles),measurement,setting,value
CC=CCC#N [3-pentenenitrile],Kpartition,[1],50
CC(C)(C)c1ccc(Op2oc3c(C(C)(C)C)cc(C(C)(C)C)cc3c3cc(C(C)(C)C)cc(C(C)(C)C)c3o2)c(C(C)(C)C)c1 [Ligand M],Kpartition,[2],25
CCCCCC(C)(C)c1cc(-c2cc(C(C)(C)CCCCC)cc(C(C)(C)CCCCC)c2Op2oc3ccccc3c3ccccc3o2)c(Op2oc3ccccc3c3ccccc3o2)c(C(C)(C)CCCCC)c1 [Ligand D],Kpartition,[2],116
CCCCC=O [valeraldehyde],Kpartition,[1],2.0
"c1ccc(-c2ccccc2Op2oc3ccccc3c3ccccc3o2)c(Op2oc3ccccc3c3ccccc3o2)c1 [Ligand A, reference compound]",partitioning behavior,"[2]; hexane/acetonitrile, Comparative Example A, control",non-selective for the hydrocarbon phase
same,Kpartition,[2],0.04
CCCC=O [butyraldehyde],Kpartition,[1],3.2
CCC=O [propionaldehyde],Kpartition,[1],9.2
CC(C)(C)c1ccc(OP(Oc2ccccc2-c2ccccc2OP(Oc2ccc(C(C)(C)C)cc2C(C)(C)C)Oc2ccc(C(C)(C)C)cc2C(C)(C)C)Oc2ccc(C(C)(C)C)cc2C(C)(C)C)c(C(C)(C)C)c1 [Ligand F],Kpartition,[2],100
CC(C)C(=O)OCC(C)(C)C(O)C(C)C (stereo not shown) [Texanol],Kpartition Texanol,"[3]; hexane/acetonitrile, Vratio 5.6, Example 40",0.4
same,Kpartition Texanol,"[3]; toluene vs acetonitrile containing water 4/1, Example 41",96
CC(C)(C)c1cc(-c2cc(C(C)(C)C)cc(C(C)(C)C)c2Op2oc3ccccc3c3ccccc3o2)c(Op2oc3ccccc3c3ccccc3o2)c(C(C)(C)C)c1 [Ligand I],Kpartition,[2],2.3
CC(C)(C)CC(C)(C)c1cc(-c2cc(C(C)(C)CC(C)(C)C)cc(C(C)(C)CC(C)(C)C)c2Op2oc3ccc(C(C)(C)C)cc3c3cc(C(C)(C)C)ccc3o2)c(Op2oc3ccc(C(C)(C)C)cc3c3cc(C(C)(C)C)ccc3o2)c(C(C)(C)CC(C)(C)C)c1 [Ligand E],Kpartition,[4],79
same,Kpartition,"DMSO, Ligand 0.6 wt%, rhodium 120 ppm, Example 23",128
same,Kpartition,"acetonitrile, Ligand 0.6 wt%, rhodium 120 ppm, Example 22",250
same,Kpartition,[5],352
same,Kpartition,[2],502
CCN(CC)P(Oc1c(-c2cc(OC)cc(C(C)(C)C)c2OP(N(CC)CC)N(CC)CC)cc(OC)cc1C(C)(C)C)N(CC)CC [Ligand K],partition coefficient Kp,[2],5
same,Kpartition,[2],5
CC(C)(C)c1cc(-c2cc(C(C)(C)C)cc(C(C)(C)C)c2Op2oc3ccc(C(C)(C)C)cc3c3cc(C(C)(C)C)ccc3o2)c(Op2oc3ccc(C(C)(C)C)cc3c3cc(C(C)(C)C)ccc3o2)c(C(C)(C)C)c1 [Ligand B],Kpartition,[4],124
same,Kpartition,"acetonitrile, Ligand 0.8 wt%, rhodium 223 ppm, Example 17",19
same,Kpartition,"hexane/acetonitrile, Ligand 1.5 wt%, rhodium 318 ppm, Example 15",34
same,Kpartition,[5],27
same,Kpartition,[2],26
CC1(c2cc(-c3cc(C4(C)CCCCC4)cc(C4(C)CCCCC4)c3Op3oc4ccccc4c4ccccc4o3)c(Op3oc4ccccc4c4ccccc4o3)c(C3(C)CCCCC3)c2)CCCCC1 [Ligand G],Kpartition,[2],19
CC(C)(C)CC(C)(C)c1cc(-c2cc(C(C)(C)CC(C)(C)C)cc(C(C)(C)CC(C)(C)C)c2Op2oc3ccccc3c3ccccc3o2)c(Op2oc3ccccc3c3ccccc3o2)c(C(C)(C)CC(C)(C)C)c1 [Ligand C],Kpartition,[4],42
same,Kpartition,"Glutaronitrile, Ligand 0.8 wt%, rhodium 222 ppm, Example 20",43
same,Kpartition,"hexane/acetonitrile, Ligand 0.8 wt%, rhodium 222 ppm, Example 16",28
same,Kpartition Ligand C,"[2]; hexane/DMSO, Example 12",68
same,Kpartition Ligand C,"[2]; hexane/glutaronitrile, Example 13",20
same,Kpartition,[2],38
CCC(C)(C)c1cc(-c2cc(C(C)(C)CC)cc(C(C)(C)CC)c2Op2oc3ccccc3c3ccccc3o2)c(Op2oc3ccccc3c3ccccc3o2)c(C(C)(C)CC)c1 [Ligand H],Kpartition,[2],6
CCCCCCCCP(CCCCCCCC)CCCCCCCC [Ligand J],partition coefficient Kp,[2],> 100
same,Kpartition,[2],> 100
